This note sets out measurements from ChEMBL document CHEMBL3585316, “Discovery, bioactivity and docking simulation of Vorinostat analogues containing 1,2,4-oxadiazole moiety as potent histone deacetylase inhibitors and antitumor agents” (Bioorg Med Chem, 2015).

Bounds are passed on as bounds.

For orientation: IC50 means the midpoint of a concentration-inhibition curve.

The target in assay [1] is Histone deacetylase. Description: Inhibition of histone deacetylase (unknown origin) by cell-free assay. The class given is protein assay, Homo sapiens.
In assay [2] the target is Histone deacetylase. Description: Inhibition of histone deacetylase (unknown origin) by intracellular cell based assay. The arrangement: species or system Homo sapiens.
Another assay relates to NCI-H661. Description: Antiproliferative activity against human NCI-H661 cells incubated for 72 hrs by MTT assay. Format: functional, cell-based. To be noted: NCI-H661, 72 h. (Tetrazolium dyes change colour on reduction, which living cells bring about.)
The subject of a further assay is U-937. Put plainly: Antiproliferative activity against human U937 cells incubated for 72 hrs by MTT assay. Format: functional, cell-based. Conditions: U-937, 72 h.
In the next assay the target is Histone deacetylase 2 (Homo sapiens, UniProt Q92769). Description: Inhibition of recombinant HDAC2 (unknown origin) incubated for 10 mins using Boc-Lys(acetyl)-AMC fluorogenic substrate by homogeneous fluorescence release assay.
Histone deacetylase 2, sequence (Q92769 whole entry): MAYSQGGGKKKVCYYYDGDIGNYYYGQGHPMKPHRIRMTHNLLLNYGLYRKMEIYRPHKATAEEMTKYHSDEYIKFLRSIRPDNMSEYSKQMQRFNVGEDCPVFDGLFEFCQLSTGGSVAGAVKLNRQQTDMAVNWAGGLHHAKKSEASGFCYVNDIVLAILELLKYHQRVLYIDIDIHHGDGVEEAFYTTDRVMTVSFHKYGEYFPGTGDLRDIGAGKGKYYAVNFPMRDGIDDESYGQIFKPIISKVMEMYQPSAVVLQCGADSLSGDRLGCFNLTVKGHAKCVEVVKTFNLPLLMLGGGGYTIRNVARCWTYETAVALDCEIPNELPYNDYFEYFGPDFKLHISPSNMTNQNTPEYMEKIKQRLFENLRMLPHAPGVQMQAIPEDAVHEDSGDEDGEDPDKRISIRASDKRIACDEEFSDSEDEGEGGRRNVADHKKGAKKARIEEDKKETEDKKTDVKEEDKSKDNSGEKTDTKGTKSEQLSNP
Another assay concerns the target T1, Histone deacetylase 8 (Homo sapiens, UniProt Q9BY41).
T1 sequence (Q9BY41 whole entry): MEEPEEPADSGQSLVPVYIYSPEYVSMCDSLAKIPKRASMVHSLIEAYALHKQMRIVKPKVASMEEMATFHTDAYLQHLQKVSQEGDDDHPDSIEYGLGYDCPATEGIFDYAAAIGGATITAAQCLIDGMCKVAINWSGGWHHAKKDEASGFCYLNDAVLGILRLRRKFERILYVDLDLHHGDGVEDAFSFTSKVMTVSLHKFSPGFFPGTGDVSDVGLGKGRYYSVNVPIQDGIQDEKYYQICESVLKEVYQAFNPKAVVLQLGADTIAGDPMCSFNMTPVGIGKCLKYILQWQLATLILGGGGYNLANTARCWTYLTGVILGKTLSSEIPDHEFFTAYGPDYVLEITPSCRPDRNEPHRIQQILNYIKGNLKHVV
Description: Inhibition of recombinant HDAC8 (unknown origin) incubated for 10 mins using Boc-Lys(acetyl)-AMC fluorogenic substrate by homogeneous fluorescence release assay.

A further assay concerns the target Histone deacetylase 1 (Homo sapiens, UniProt Q13547). Description: Inhibition of recombinant HDAC1 (unknown origin) incubated for 10 mins using Boc-Lys(acetyl)-AMC fluorogenic substrate by homogeneous fluorescence release assay.
Another assay concerns A549. Description: cells. Conditions: Homo sapiens, A549, 72 h.

Histone deacetylase 1, sequence (Q13547 whole entry): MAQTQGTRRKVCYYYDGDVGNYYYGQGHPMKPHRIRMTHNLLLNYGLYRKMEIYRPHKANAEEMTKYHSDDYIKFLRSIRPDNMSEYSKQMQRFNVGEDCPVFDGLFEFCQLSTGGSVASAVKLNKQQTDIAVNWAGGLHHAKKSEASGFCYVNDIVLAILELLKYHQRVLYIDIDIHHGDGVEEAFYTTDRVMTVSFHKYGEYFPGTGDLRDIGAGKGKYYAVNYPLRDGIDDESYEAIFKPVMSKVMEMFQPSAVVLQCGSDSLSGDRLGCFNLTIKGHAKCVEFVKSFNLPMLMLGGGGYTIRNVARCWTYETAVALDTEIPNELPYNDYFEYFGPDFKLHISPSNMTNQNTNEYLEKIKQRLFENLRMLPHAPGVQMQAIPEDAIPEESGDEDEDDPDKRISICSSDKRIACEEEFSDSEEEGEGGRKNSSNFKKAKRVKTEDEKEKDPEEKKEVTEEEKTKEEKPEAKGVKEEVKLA
Description for A549: Antiproliferative activity against human A549 cells incubated for 72 hrs by MTT assay

Regarding `O=C(CCCCCc1nc2cc3ccccc3cc2[nH]1)C(F)(F)F`, the IC50 against Histone deacetylase [1] came to 0.6 µM; against Histone deacetylase [2] it was 1.8 µM.
`O=C(CCCCCCc1nc(-c2ccc(F)cc2)no1)NO`: the IC50 was 19.4 µM in the assay with NCI-H661; 1.93 µM in the assay with U-937; 6.26 µM on Histone deacetylase 2; 8.76 µM at Histone deacetylase 8; 1.15 µM at Histone deacetylase 1; 5.77 µM with A549.
Turning to `Nc1ccccc1NC(=O)CCCCCCc1nc(-c2ccccc2Cl)no1`, the IC50 in the assay on NCI-H661 was 8.31 µM; in the assay on U-937, 6.91 µM; on Histone deacetylase 2, over 10 µM; at Histone deacetylase 8 it was over 10 µM; at Histone deacetylase 1, 4.13 µM; in the assay on A549 it was over 100 µM.
On to `O=C(CCCCCCc1nc(-c2cccs2)no1)NO`, for which the IC50 in the assay on NCI-H661 was 9.46 µM; with U-937 it was 0.32 µM; at Histone deacetylase 2 it was 0.51 µM; on Histone deacetylase 8, 1.92 µM; on Histone deacetylase 1, 0.12 µM; in the assay on A549 it was 4.37 µM.
As to `O=C(CCCCCCc1nc(-c2ccc([N+](=O)[O-])cc2)no1)C(F)(F)F`, the IC50 in the assay on NCI-H661 was 17.5 µM; with U-937 it was 3.68 µM; on Histone deacetylase 2, 8.15 µM; at Histone deacetylase 8, 3.17 µM; on Histone deacetylase 1 it was over 10 µM; in the assay on A549 it was over 100 µM.
Take `O=C(CCCCCCc1nc(-c2ccc([N+](=O)[O-])cc2)no1)NO`: the IC50 stood at 3.09 µM in the assay on NCI-H661; 0.29 µM with U-937; 0.23 µM on Histone deacetylase 2; 2.56 µM on Histone deacetylase 8; 0.07 µM on Histone deacetylase 1; 5.31 µM in the assay with A549.
`O=C(CCCCCCc1nc(-c2cccnc2)no1)NO`: the IC50 in the assay on NCI-H661 came to 6.02 µM; in the assay on U-937 it was 0.35 µM; at Histone deacetylase 2, 0.39 µM; at Histone deacetylase 8, 1.83 µM; at Histone deacetylase 1, 0.08 µM; with A549, 5.34 µM.
For `Nc1ccccc1NC(=O)CCCCCCc1nc(-c2cccc([N+](=O)[O-])c2)no1`, the IC50 in the assay with NCI-H661 is 7.29 µM; in the assay on U-937, 2.15 µM; on Histone deacetylase 2 it was 5.19 µM; at Histone deacetylase 8, over 10 µM; on Histone deacetylase 1 it was 0.82 µM; with A549 it was 20.2 µM.
